Laboratory results reported in patent publication US12427179B2, “Compositions and methods for diagnosis and treatment of neurodegenerative diseases” (EPITRACKER, INC., priority 2019, dated 2025).

Assays:
Type in all cases: cell-based, human
[1] = tested on: BT: Peripheral blood mononuclear cells, B cells (α-IgM, TCR ligands); assay: BioMAP BT system; settings: BT system; at the compound's active concentration
Procedure: (§1) Anti-inflammatory phenotypic profiling was conducted across 12 human primary cell-based systems as part of DiscoverX's BioMAP Diversity Plus program. These systems are designed to model complex human tissue and disease biology of the vasculature, skin, lung, and inflammatory tissues. Quantitative measurements of biomarker activities across this broad panel were used to assess each biochemical's anti-inflammatory activity at four concentrations ([…] and 2.2, 6.7 and 20 μM). […] Protein-based biomarkers from activated cell systems were measured and compared with controls. Biomarker activities were annotated when 2 or more consecutive concentrations change in the same directions relative to vehicle controls, were outside of the significance envelope and had at least one concentration with an effect size>20% (log 10 ratio)>0.1.
(§2) In the first system, human primary peripheral blood mononuclear cells and venular endothelial cells were stimulated with lipopolysaccharide (LPS) and incubated with the test agent, drug control, or vehicle control for 24 hours. In the second system, peripheral blood mononuclear cells and B cells were stimulated with α-IgM and T cell receptor ligands and incubated with the test agent, drug control, or vehicle control for 24 hours. In both systems, a negative, non-stimulated system was also included.
(§3) The Diversity PLUS panel allows test agent characterization in an unbiased way across a broad set of systems modeling various human disease states. These systems are designed to model complex human tissue and disease biology of the vasculature, skin, lung, and inflammatory tissues. Quantitative measurements of 148 biomarker activities across this broad panel, along with comparative analysis of biological activities from known bioactive agents, were used to predict and compare the efficacy and function of each selected compound at selected concentrations (6.7 and/or 20 μM).
(§4) BioMAP systems are constructed with one or more primary cell types from healthy human donors, with stimuli (such as cytokines or growth factors) added to capture relevant signaling networks that naturally occur in human tissue or pathological conditions. Vascular biology is modeled in both a Th1 (3C system) and a Th2 (4H system) inflammatory environment, as well as in a Th1 inflammatory state specific to arterial smooth muscle cells (CASM3C system). Additional systems recapitulate aspects of the systemic immune response including monocyte-driven Th1 inflammation (LPS system) or T cell stimulation (SAg system), chronic Th1 inflammation driven by macrophage activation (lMphg system) and the T cell-dependent activation of B cells that occurs in germinal centers (BT system). The BE3C system (Th1) and the BF4T system (Th2) represent airway inflammation of the lung, while the MyoF system models myofibroblast-lung tissue remodeling. Lastly, skin biology is addressed in the KF3CT system modeling Th1 cutaneous inflammation and the HDF3CGF system modeling wound healing.
(§5) Each test agent generates a signature BioMAP profile that is created from the changes in protein biomarker readouts within individual system environments. Biomarker readouts (7-17 per system) are selected for therapeutic and biological relevance, are predictive for disease outcomes or specific drug effects and are validated using agents with known mechanism of action (MoA). Each readout is measured quantitatively by immune-based methods that detect protein (e.g., ELISA) or functional assays that measure proliferation and viability. BioMAP readouts are diverse and include cell surface receptors, cytokines, chemokines, matrix molecules and enzymes. In total, the Diversity PLUS panel contains 148 biomarker readouts that capture biological changes that occur within the physiological context of the particular BioMAP system. […]

[2] = tested on: BE3C: Bronchial epithelial cells (IL-1β, IFNγ, TNFα); assay: BioMAP BE3C system; settings: at the compound's active concentration
Description: The Diversity PLUS panel allows test agent characterization in an unbiased way across a broad set of systems modeling various human disease states. These systems are designed to model complex human tissue and disease biology of the vasculature, skin, lung, and inflammatory tissues.
as §4
Each test agent generates a signature BioMAP profile that is created from the changes in protein biomarker readouts within individual system environments. Biomarker readouts (7-17 per system) are selected for therapeutic and biological relevance, are predictive for disease outcomes or specific drug effects and are validated using agents with known mechanism of action (MoA). Each readout is measured quantitatively by immune-based methods that detect protein (e.g., ELISA) or functional assays that measure proliferation and viability. BioMAP readouts are diverse and include cell surface receptors, cytokines, chemokines, matrix molecules and enzymes.
Activated BioMAP systems were incubated with each compound for 24 to 72 hours. Protein-based biomarkers from activated cell systems were measured and compared with non-treated control systems.

[3] = tested on: LPS: Venular endothelial cells, peripheral blood mononuclear cells (TLR4 ligand); assay: BioMAP LPS system; settings: at the compound's active concentration
Procedure: as §1, §2, §3, §4, §5

## O=C(O)CNC(=O)c1ccccc1 [hippurate]
[1]
  Secreted IgG, log10 reduction vs nontreated controls: −0.21 log10
[2]
  MMP-1, log10 reduction vs nontreated controls: −0.14 log10
[3]
  CD40, log10 reduction vs nontreated controls: −0.11 log10
